According to patent US8759309B2, “Polynucleotides that stimulate neutrophils” (Immunom Technologies, Inc., priority 2010, dated 2014):
Where “and” joins values, the source holds several entries; their conditions need not be identical. Equal values may be shown once. Entries after “also recorded” stand apart in the source; their conditions may differ.

Test system: neutrophils isolated from the kidneys of fathead minnows
Assay: Neutrophil oxidative (respiratory) burst, oxidation of DHR123 to rhodamine by flow cytometry
Format: cell-based, Pimephales promelas
Conditions: for % of PMA (oxidative burst): PMA at 1 μg/ml = 100%, * P<0.05; for stimulation of neutrophils (qualitative): exposure of neutrophils to individual oligos and their dimer
Text: Polynucleotides that stimulate neutrophils may be identified by exposing neutrophils isolated from the kidneys of fathead minnows to one or more polynucleotides complementary to an Initiation Site of Origin of Replication. The oxidation of the non-fluorescent dihydrorhodamine 123 (DHR123) to fluorescent rhodamine (Rh 123) may be determined indirectly by determining fluorescence intensity using spectrofluorometry in a flow cytometer. Rh 123 has an absorption maximum at 507 nm and a fluorescence maximum at 529 nm. Results of fluorescence intensity for the polynucleotide of the present invention and a control may be obtained and compared. The control serves as a reference point for measuring changes in phenotype such as fluorescence intensity. A control may include a neutrophil contacted with a known neutrophil stimulator, such as phorbol myristic acetate (PMA), and/or a neutrophil not exposed to the neutrophil stimulator or the polynucleotide of the present invention. The degree or amount of fluorescent intensity of each sample may be determined at a desired time point and the values of various samples compared. For example, a similar or an increase in the fluorescence intensity level of a sample from a neutrophil exposed to a polynucleotide of the present invention relative to the fluorescence intensity level of a sample from a neutrophil exposed to a known neutrophil stimulator would be indicative of the polynucleotide being able to stimulate neutrophils. For example, an increase in the fluorescence intensity level of a sample from a neutrophil exposed to a polynucleotide of the present invention relative to the fluorescence intensity level of a sample from a control neutrophil not exposed a known neutrophil stimulator or polynucleotide of the present invention would be indicative of the polynucleotide being able to stimulate neutrophils. Other suitable assays may be used to determine neutrophil stimulation, by measuring the uptake of oxygen or destruction of bacteria, including but not limited to. Measuring the release of specific cytokines can also be used to determine neutrophil activity. See: Scapini, P., Llapinet-Vera, J., Gasperini, S., Calzetti, F., Bazzoni, F., Cassatella, M., The Neutrophil as a Cellular Source of Cytokines; Immunol. Rev. 177, 195-203.
Killing microbes by the action of myeloperoxidase requires oxygen. Therefore, measuring the transient increase in oxygen uptake—the respiratory burst—by neutrophils reflects their antimicrobial activity. The respiratory burst, therefore, can be used as an indicator of the extent of neutrophil stimulation.
Oligo A can dimerize with itself which may explain why it had less broad stimulating activity than die Oligo B. It was determined by spectrofluorometry in a flow cytometer which recorded the oxidation of the non-fluorescent dihydrorhodamine 123 (DHR123) to fluorescent rhodamine during exposure of neutrophils to the oligos. Results were compared to the degree of fluorescence of a known powerful neutrophil stimulator, phorbol myristic acetate (PMA).
The degree of stimulation by PMA at a concentration of […] represented in the accompanying graph as 100%.
Neutrophils from fathead minnows were prepared and tested by the Institute for International Cooperation in Animal Biologics, Iowa State Univ., Ames, Iowa 50011 (See: Immunomodulatory Effects of B-glucan on Neutrophil Function in Fathead Minnows, Pimephales promelas Rafinesque, 1820, Dev. and Comp. Immunol. (2006 30; 817-830), Palić, D., et al). Oligos were prepared by Oligos, Etc., Portland, Oreg. 97298).

Compound | % of PMA (oxidative burst) (Oligo Conc. 0.03 μg/ml) | % of PMA (oxidative burst) (Oligo Conc. 0.3 μg/ml) | % of PMA (oxidative burst) (Oligo Conc. 3 μg/ml) | % of PMA (oxidative burst) (Oligo Conc. 30 μg/ml) | stimulation of neutrophils (qualitative) | neutrophil destruction (30 μg/ml) | oxidative burst compared with other oligos (P<0.05 denoted by *) | degree of stimulation (reference) (PMA at 1 μg/, set as 100%) [%]
5′AAUAggUgU3′ (AAUANGUGU; ribonucleotide, lower-case positions undefined, further chemistry not given here) [Oligo A, ribonucleotide complementary to the consensus core of bacterial Initiation Sites] | 11.83 % of PMA | 0 % of PMA | 0 % of PMA | 16.21 % of PMA | significant stimulation | – | – | –
5′UUAUCCACA3′ (UUAUNCACA; chemistry not fully specified) [Oligo B] | 30 % of PMA and 29.57* % of PMA | 18.32* % of PMA | 33.02* % of PMA | 14.93 % of PMA | significant stimulation | did not indicate neutrophil destruction | significantly higher than Oligo A at all tested concentrations; also recorded: significantly higher than mixtures of Oligos A and B at most concentrations | –
CCCCCCCCCCCCCC(=O)O[C@@H]1[C@@H](C)[C@@]2(O)[C@@H](C=C(CO)C[C@]3(O)C(=O)C(C)=C[C@@H]23)[C@@H]2C(C)(C)[C@]12OC(C)=O [PMA, phorbol myristic acetate, reference compound] | – | – | – | – | – | – | – | 100
